Data published in article PMC7904806, “A phase I dose-finding, pharmacokinetics and genotyping study of olaparib and lurbinectedin in patients with advanced solid tumors” (Scientific Reports, 2021).
Several values for one entry are separate records, joined by “and”; a condition that tells them apart may be missing. Equal entries are not always repeated. Entries after “also recorded” stand apart in the source; their conditions may differ. Where two headings read alike, the source gives them in different places.

How the values were obtained:
A2780 = experiment: MTT cytotoxicity assay, A2780; format: cell-based; conditions: A2780, lowest IC50 of the panel
Experimental: (§1) The following Ovarian Cancer Cell lines were analyzed: TOV112, SKOV-3, OVCAR-3, PEO1, PEO6, PEO4, A2780 and A2780-Cis (an A2780 variant made resistant to platinum), representing the main different molecular subtypes of ovarian cancer (Supplementary Table 6). These cell lines were maintained at 37 °C in 5% CO2 in RPMI‐1640 medium (Sigma‐Aldrich Co.) and DMEM medium (Sigma‐Aldrich Co.), all supplemented with 10% heat‐inactivated FBS (Sigma‐Aldrich Co.). To verify the genetic profile of the cell lines, a characterization of microsatellite markers was carried out (AmpFlSTR Identifiler PCR Amplification Kit, AppliedBiosystem).
(§2) For the pharmacological characterization of the different cell lines, dose–response curves were obtained for lurbinectedin (range between 25 and 0.0343 μM and 100–1.5625 μM dilution factor 3 and 2, respectively) and olaparib (range between […]). […] Cytotoxicity assay was assessed performing six technical replicates and three biological replicates per each curve point.
(§3) For MTT assay, cells were plated and after 24 h of incubation, treated with the drug (lurbinectedin/olaparib) either as a single agent or with both agents simultaneously. […] Finally, the absorbance was measured at 570 nm.

[1] = single-agent, cited from earlier work
[2] = cited from earlier work
[3] = tested on: ovarian cancer cell lines; experiment: MTT cytotoxicity assay, panel of ovarian cancer cell lines; format: cell-based
Experimental: as §1, §2
Before starting cytotoxicity assays to characterize the chemosensitivity of cell lines to study drugs, different time of exposures and doses were tested in order to establish the most suitable working conditions. […] Regarding olaparib, exposure times were established at 72, 96 and 120 h, measuring absorbance directly after treatment exposure (Supplementary Fig. 10). […]

[4] = Pharmacokinetics in patients, cycle 1 (noncompartmental analysis); format: in vivo, human; conditions: for Drug–drug interactions (DDI): combination of lurbinectedin and olaparib
Source text: Blood samples for pharmacokinetic (PK) analyses were collected during cycle 1, with a schedule of ten samples (Supplementary Table 5).
Safety and efficacy population comprised all patients who received at least one dose of the study treatment. Continuous variables were presented with summary statistics and qualitative variables with the absolute and relative frequencies. In those cases where it was necessary to ensure the normality of the continuous parameters, log transformation (or other suitable transformation) was performed. Analysis of Variance (ANOVA) was used for exploratory group comparisons. If Gaussian distribution assumptions (Shapiro–Wilks test) were not met, equivalent nonparametric methods as the Kruskal–Wallis, were performed. Chi-squared or Fisher exact test were used for qualitative parameters. To explore the change in value of a variable, between baseline and week 12 or any other time point, a t-test for paired data or the Wilcoxon signed-rank test was performed, based on the distribution followed by the corresponding variable. All statistical analyses were performed using IBM SPSS Statistics 22 and R v.3.4.3. PK analysis was performed according to the NCA. […] The dose-exposure relationships for Cmax and AUC for lurbinectedin and AUC 0–6 for olaparib will be evaluated and any potential PK interaction between olaparib and lurbinectedin were also explored. The population pharmacokinetics (PopPK) models for each drug was used to detect potential drug–drug interactions based on single agent PopPK models. The potential influence on selected PK parameters of selected demographic and clinical dichotomous variables (gender, laboratory test results above/below selected cutoff values, etc.) was evaluated by Student’s test Mann–Whitney’s U test as appropriate. For multinomial variables, analysis of variance was used. For selected continuous demographic and clinical variables, relationships with selected PK parameters were graphically explored and assessed using correlation and regression methods.
Supplementary Table 5. Sampling schedule for the determination of lurbinectedin and
Sample Time relative to the Sampling times Sampling times PK
number lurbinectedin for lurbinectedin for olaparib window
#1 1 0 min Pre-infusion Pre-dose -10 min to SOI
#2 1 0.5 h 30 min before EOI 30 min after 1st administration ±2 min
#3 1 0.92 h 5 min before EOI 55 min after 1st administration ±2 min
#4 1 1.5 h 30 min after EOI 1.5 h after 1st administration ±5 min
#5 1 3 h 2 h after EOI 3 h after 1st administration ±10 min
#6 1 4.5 h 3.5 h after EOI 4.5 h after 1st administration ±10 min
#7 1 6 h 5 h after EOI 6 h after 1st administration ±10 min
2 24 h after 1st administration
#8 24 h 23 h after EOI (immediately before 3rd olaparib administration) ±2 h
4 72 h after 1st administration
#9 † 72 h 71 h after EOI (immediately before 7th olaparib administration) +24 / -2 h […]

A2780 CIS = experiment: MTT cytotoxicity assay, A2780 CIS; format: cell-based; conditions: A2780cis, lowest IC50 of the panel
Experimental: as §1, §2, §3

For `COc1ccc2[nH]c3c(c2c1)CCN[C@]31CS[C@@H]2c3c(OC(C)=O)c(C)c4c(c3[C@H](COC1=O)N1[C@@H]2[C@H]2c3c(cc(C)c(OC)c3O)C[C@@H]([C@@H]1O)N2C)OCO4` [lurbinectedin], the IC50 (A2780) is given as 0.46 nM, the “Grade 3–4 neutropenia” value ([1]; dose adjusted to body surface area ref 23) is given as 57% and the “Grade 3–4 neutropenia” value ([1]; flat dose ref 21) is given as “up to 85%”. For the same compound, the “Mean lurbinectedin CL as single-agent” value ([2]; single-agent ref 25) was 12 L/h, the “IC50 reached after 1 h exposure” value ([3]; 1 h exposure, viability at 72 h) was “not enough to reach the IC50 value” and the IC50 ([3]; all cell lines except OVCAR3, 72 h exposure) was under 1 nM. For the same compound, the “Drug–drug interactions (DDI)” value [4] was “did not observe any potential drug–drug interactions; also recorded: no drug interactions”, the “Mean lurbinectedin CL” value ([4]; highest olaparib DL (250 mg BID)) was 12 L/h and the “Lurbinectedin CL variability” value ([4]; lurbinectedin 1 mg/m^2) was 92%. For the same compound, the “Lurbinectedin CL, one patient with high CL” value ([4]; lurbinectedin 1 mg/m^2) was 37 L/h, the “Lurbinectedin CL variability” value ([4]; lurbinectedin 1.5 mg/m^2) was 36% and the “Lurbinectedin CL variability” value ([4]; lurbinectedin 2 mg/m^2) was 52%. The “Lurbinectedin CL variabilities” value ([4]; olaparib 200 and 250 mg BID, lurbinectedin 1.5 and 2 mg/m^2) was about 36% and the “Mean lurbinectedin clearance (CL)” value ([4]; three lurbinectedin DLs, with olaparib) was about 12 L/h.

In the case of `O=C(c1cc(Cc2n[nH]c(=O)c3ccccc23)ccc1F)N1CCN(C(=O)C2CC2)CC1` [olaparib], the “Olaparib total body clearance” value ([2]; literature ref 31) is listed as 5.1 L/h and 8.6 L/h, the “Olaparib PK parameters by lurbinectedin DL” value ([4]; NCA) is listed as “did not show differences” and the “Drug–drug interactions (DDI)” value [4] is listed as “no drug interactions”. For the same compound, the clearance ([4]; human, blood, oral, olaparib 100 mg, read-out: Olaparib CL (converted)) was 50 mL/min, the clearance ([4]; human, blood, oral, olaparib DLs above 100 mg, read-out: Olaparib CL (converted)) was 100 to 167 mL/min and the half-life ([4]; human, in vivo, oral, this trial, NCA samples until 6 h, read-out: Olaparib terminal half-life (converted)) was 3 h. For the same compound, the clearance ([4]; human, in vivo, oral, this trial, read-out: Mean olaparib total body clearance (converted)) was 117 mL/min and the IC50 (A2780 CIS) was 2900 nM.
